Data published in patent publication US8026211B2, “Methods and formulations for increasing intestinal function” (Technion Research & Development Foundation Ltd., priority 2004, dated 2011).

Legend:
Type in all cases: in vivo
[1] = tested on: rat model of short bowel syndrome; assay: Rat model of SBS: body weight and intestinal adaptation parameters (bowel circumference, bowel and mucosal weight, mucosal DNA and protein)
Protocol: Animal treatment: Animals were obtained from the Rappaport Faculty of Medicine (Technion, Haifa, Israel). Male rats weighing 240-260 g were kept in individual stainless steel cages at constant temperature and humidity, and a 12-hour light-dark cycle was maintained. Rats were fasted 12 hours prior to the experiment with free access to water. Animals underwent one of two surgical procedures: bowel transection and re-anastomosis or 75% bowel resection and anastomosis. General anesthesia was induced with Pentobarbital (IP 40 mg/kg). Using sterile techniques, the abdomen was opened using a midline incision. In sham rats, simple bowel transection and end-to-end re-anastomosis was performed 15 cm proximal to ileo-cecal junction. In SBS animals, small bowel was resected from a point 5 cm distal to the ligament of Treitz to a point 10 cm proximal to the ileo-cecal junction. Bowel continuity was restored by end-to-end anastomosis using 5-0 Vicryl interrupted sutures. For all operations, the abdominal cavity was closed in two layers with a running suture of 3-0 Dexon. Prior to closure of the abdomen, the rats were resuscitated with a 3 ml intraperitoneal injection of warm normal saline. Rats were fasted for 24 hours but were allowed free access to water.
Experimental design: Forty rats were randomly assigned to one of three groups:
Group A—sham-rats underwent bowel transection (sham, n=14) and than fed with regular chow diet.
Group B—SBS-animals underwent bowel resection (SBS, n=13) and than fed regular chow diet.
Group C—SBS-Insulin (SBS-INS, n=13) rats underwent bowel resection and were fed regular chow diet and water containing insulin (ACTRAPID insulin, NOVO NORDISK, Denmark) at concentration of 1 u/ml. Food and fluid intake of animals were monitored as well as weight for a period of 14 days following treatment after which the animals were sacrificed following intraperitoneal injection of pentobarbital (75 mg/kg).
Intestinal adaptation parameters: The small bowel was rapidly removed, rinsed with cold isotonic saline and divided into two segments: jejunum proximal to anastomosis and terminal ileum. Each segment was weighed, cut longitudinally, bowel circumference was measured in three equidistant points as described by Dowling [Dowling R H, Booth C C, 1967, Clin Sci; 32: 139-149] and the mean circumference was calculated. Mucosa was scraped using a glass slide, collected and weighed. Bowel and mucosal weight was calculated per cm of bowel length per 100 g of body weight as described previously [Sukhotnik I, et al., 2002, J Surg Res., December; 108(2):235-42]. Although bowel length may change due to spasm or bowel distension, the calculation per unit of bowel length is considered to be the gold standard in describing structural changes in intestine. DNA and protein were extracted using TRIzol reagent (Rhenium LTD, Jerusalem). The DNA concentrations were recorded in a spectrophotometer and calculated per cm of bowel length. Final protein concentration was measured spectrophotometrically using a commercially available kit (Bio-Rad, Protein Assay) and was calculated per cm of bowel length.
Statistical analysis: The data are expressed as the mean±SEM. A paired Student's t-test and the non-parametric Kruskal-Wallis ANOVA test were used as indicted. p<0.05 was considered statistically significant.

[2] = tested on: ischemia-reperfusion (IR) injury in rats; assay: Rat ischemia-reperfusion injury: intestinal histology (villus height, crypt depth, Park's injury grade)
Protocol: (§1) Surgical procedure: Following overnight fasting, the animals were anesthetized with intraperitoneal injection of pentobarbital (IP 40 mg/kg). Using sterile techniques, the abdomen was opened using a midline incision. […] IR underwent laparotomy, mobilization and occlusion of SMA and portal vein by vascular clamp for 30 minutes followed by a reperfusion period of 24 hours. Before closure of the abdomen, the rats were resuscitated with a 3-ml intraperitoneal injection of warm 0.9% saline. For all operations, the abdominal cavity was closed in two layers with a running suture of Dexon “S” Polyglycolic Acid 3/0. Rats were allowed free access to water and food. Twenty-four hours later, the rats were anesthetized with intraperitoneal pentobarbital (75 mg/kg) and were sacrificed by open pneumothorax.
Intestinal Histology: Intestinal samples from the proximal jejunum and distal ileum were fixed in 10% formalin, dehydrated in progressive concentrations of ethanol, cleared in xylene, and embedded in paraffin wax. Deparaffinized […] sections were stained with haematoxylin and eosin. Ten villi and crypts were selected for the microscopic analysis, using a 10×4 magnifying lens. Histological images were loaded on a 760×570 pixels resolution buffer using a computerized image analysis system composed of a trichip RGB video-camera (Sony, Japan), installed on a light microscope (Zeiss, Germany) and attached to an IBM compatible personal computer (Pentium III, MMX, 450 mhz, 125 MB RAM), equipped with a frame grabber. […] The villus height and crypt depth were measured using the Image Pro Plus 4 image analysis software (Media Cybernetics, Baltimore, Md., USA).
The degree of intestinal tissue injury was evaluated on a grading scale from 0 to 8 as described previously by Park et al., [Surgery. 107: 574, 1990]: 0—normal mucosa, 1—subepithelial space at villus tip, 2—more extended subepithelial space, 3—epithelial lifting along villus sides, 4—denuded villi, 5—loss of villus tissue, 6—crypt layer infarction, 7—transmucosal infarction, 8—transmural infarction.

[3] = tested on: enterocytes; assay: Rat ischemia-reperfusion injury: enterocyte apoptosis (TUNEL assay); details: IR rats, oral insulin; IR-untreated 2.8±0.7; p<0.05
Protocol: as §1
Apoptotic cells were identified using the terminal deoxynucleotidyl transferase-mediated, dUTP nick end-labeling (TUNEL) assay. Terminal deoxynucleotidyl transferase (TdT) (Boehringer Mannheim GmbH, Mannheim, Germany) was used to label DNA strand breaks. Incorporation of fluorescein was detected by anti-fluorescein antibody Fab fragments from sheep, conjugated with horse-radish peroxidase (POD) (Boehringer Mannheim GmbH, Mannheim, Germany). Briefly, five-micrometer paraffin-embedded sections were dewaxed and rehydrated with xylene and graded alcohol. […]

[4] = SBS rats, oral insulin 1 u/ml in water, 14 days, vs SBS-untreated, p<0.05
[5] = SBS rats, oral insulin supplementation (summary)
[6] = SBS rats, oral insulin, vs SBS-untreated

insulin
additional increase in ileal overall bowel weight [1, 4]: 40% | additional increase in jejunal mucosal weight [1, 4]: 33% | additional increase in jejunal overall bowel weight [1, 4]: 18% | increase in ileal mucosal DNA content [1, 4]: almost two-fold increase | increase in ileal mucosal protein content [1, 4]: two-fold increase | increase in ileal mucosal weight [1, 4]: almost two fold increase | increase in mucosal weight in the remaining segments [1, 5]: 30-200% | increase in overall bowel weight in the remaining segments [1, 5]: 20-50% | increase in bowel diameter ([1]; SBS rats, oral insulin supplementation, remaining segments (summary)): approximately 10% | mucosal DNA in jejunum [1, 6]: not associated with an increase | mucosal protein in jejunum [1, 6]: not associated with an increase | body weight gain ([1]; SBS-INS rats (insulin 1 u/ml in water) vs SBS-nontreated, day 7 through 14, p<0.05): gained weight at greater rate | jejunal and ileal bowel circumference ([1]; SBS-insulin rats vs SBS-untreated, 14 days, insulin 1 u/ml in water): additional increase | intestinal injury grade (Park's criteria) in jejunum and ileum ([2]; IR rats, oral insulin, vs IR-animals): did not significantly change | ileal crypt depth ([2]; insulin treated IR rats, IR 131±7, p<0.05): 219±11 μm | jejunal crypt depth ([2]; insulin treated IR rats, IR 167±8, p<0.05): 264±13 μm | ileal villus height ([2]; insulin treated IR rats, IR 225±25, p<0.05): 421±40 μm | jejunal villus height ([2]; insulin treated IR rats, IR 341±29, p<0.05): 622±91 μm | apoptotic index in ileum [3]: 1.2±0.4 TUNEL positive cells/10 villi
